Laboratory results from ChEMBL document CHEMBL1201862, “PubChem BioAssay data set” (2004).
Active and inactive are the calls of the source.

Columns and labels:
[1] = target: T1, Replicative DNA helicase DnaB (Mycobacterium tuberculosis, UniProt P9WMR3); test: DnaB intein splicing inhibitors, dose response, biochemical, cell-free fluorescence (AID 449749); format: functional
T1 sequence (P9WMR3 whole entry): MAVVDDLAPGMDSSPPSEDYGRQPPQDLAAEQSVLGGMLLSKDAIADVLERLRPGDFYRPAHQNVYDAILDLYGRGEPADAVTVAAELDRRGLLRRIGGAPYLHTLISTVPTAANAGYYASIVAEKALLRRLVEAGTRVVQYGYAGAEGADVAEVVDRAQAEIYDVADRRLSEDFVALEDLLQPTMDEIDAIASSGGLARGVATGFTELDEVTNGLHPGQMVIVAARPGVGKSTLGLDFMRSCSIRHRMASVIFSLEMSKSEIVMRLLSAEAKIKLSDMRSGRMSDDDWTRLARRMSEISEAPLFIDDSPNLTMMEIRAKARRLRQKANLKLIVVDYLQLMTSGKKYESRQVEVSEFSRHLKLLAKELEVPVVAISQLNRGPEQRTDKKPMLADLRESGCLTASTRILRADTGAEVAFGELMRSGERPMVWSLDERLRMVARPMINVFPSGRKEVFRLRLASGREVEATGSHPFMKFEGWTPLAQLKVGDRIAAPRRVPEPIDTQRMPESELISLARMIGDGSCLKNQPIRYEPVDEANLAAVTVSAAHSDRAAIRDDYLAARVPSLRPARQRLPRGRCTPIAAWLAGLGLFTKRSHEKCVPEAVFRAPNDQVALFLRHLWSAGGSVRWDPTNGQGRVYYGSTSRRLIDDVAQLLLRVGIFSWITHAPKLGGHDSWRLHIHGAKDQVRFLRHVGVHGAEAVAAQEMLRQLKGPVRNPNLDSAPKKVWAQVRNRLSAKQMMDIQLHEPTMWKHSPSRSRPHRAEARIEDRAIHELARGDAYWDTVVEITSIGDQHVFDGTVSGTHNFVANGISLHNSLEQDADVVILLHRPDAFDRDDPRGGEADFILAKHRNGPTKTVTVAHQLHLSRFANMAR

Protein RecA = target: T2, Protein RecA (Mycobacterium tuberculosis, UniProt P9WHJ3); test: Fluorescence Cell-Free Homogeneous Dose Retest to Identify Inhibitors of RecA-Intein Splicing Activity. [Related pubchem assays (depositor defined):AID2097, AID2223, AID489010, AID492950]; format: functional
T2 sequence (P9WHJ3 whole entry): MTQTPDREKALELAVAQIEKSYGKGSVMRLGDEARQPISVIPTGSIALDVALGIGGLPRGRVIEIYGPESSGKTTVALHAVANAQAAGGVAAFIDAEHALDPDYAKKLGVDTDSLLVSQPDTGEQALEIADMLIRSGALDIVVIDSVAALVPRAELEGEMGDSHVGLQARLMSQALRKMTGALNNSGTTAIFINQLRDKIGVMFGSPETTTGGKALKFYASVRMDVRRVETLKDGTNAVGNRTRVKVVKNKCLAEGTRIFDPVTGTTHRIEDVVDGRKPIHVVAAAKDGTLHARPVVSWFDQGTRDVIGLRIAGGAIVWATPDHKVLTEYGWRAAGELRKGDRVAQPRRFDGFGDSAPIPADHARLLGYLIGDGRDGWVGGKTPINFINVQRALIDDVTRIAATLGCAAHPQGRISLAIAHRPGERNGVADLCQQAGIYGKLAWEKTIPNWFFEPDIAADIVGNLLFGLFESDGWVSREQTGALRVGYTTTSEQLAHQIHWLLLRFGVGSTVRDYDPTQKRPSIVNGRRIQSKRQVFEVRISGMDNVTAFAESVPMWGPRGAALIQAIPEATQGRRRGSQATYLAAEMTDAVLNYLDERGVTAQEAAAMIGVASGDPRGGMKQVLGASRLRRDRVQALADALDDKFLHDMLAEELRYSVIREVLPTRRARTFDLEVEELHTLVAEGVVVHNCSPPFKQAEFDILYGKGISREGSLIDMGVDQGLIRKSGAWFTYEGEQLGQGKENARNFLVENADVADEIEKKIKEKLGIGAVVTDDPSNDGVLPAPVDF

Vero [2] = test: mammalian cell viability reduction – secondary assay, cytotoxicity control for West Nile virus antiviral project, dose response (AID 1650); format: functional; settings: Chlorocebus sabaeus
[3] = target: T3, RNA-editing ligase 1, mitochondrial (Trypanosoma brucei brucei, UniProt P86926); test: inhibition of trypanosome RNA editing ligase – biochemical, fluorescence, Trypanosoma brucei, dose response (AID 1117295); format: functional
T3 sequence (P86926 whole entry): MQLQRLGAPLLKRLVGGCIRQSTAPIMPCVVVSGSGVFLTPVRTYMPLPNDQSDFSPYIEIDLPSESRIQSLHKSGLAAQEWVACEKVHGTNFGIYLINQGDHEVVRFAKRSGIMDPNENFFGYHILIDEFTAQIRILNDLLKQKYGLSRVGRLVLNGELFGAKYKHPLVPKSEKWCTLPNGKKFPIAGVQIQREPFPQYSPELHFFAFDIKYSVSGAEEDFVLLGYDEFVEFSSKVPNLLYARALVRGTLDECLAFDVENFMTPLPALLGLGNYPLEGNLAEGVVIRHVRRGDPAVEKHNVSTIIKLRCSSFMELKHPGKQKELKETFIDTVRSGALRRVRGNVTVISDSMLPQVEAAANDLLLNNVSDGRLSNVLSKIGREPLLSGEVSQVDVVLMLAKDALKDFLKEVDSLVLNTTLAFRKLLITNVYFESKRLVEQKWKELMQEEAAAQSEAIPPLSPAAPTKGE

[4] = HIV-1 Vif–A3G interaction blockers – biochemical, TR-FRET, GST-Vif 1-94, biotin-A3G peptide, dose response retest, primary screen (AID 1117319); format: functional;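 note: TR-FRET signal of purified GST-Vif binding a biotinylated A3G peptide; inhibitors lower the FRET signal by blocking Vif and A3G binding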
Cytochrome P450 1A2 = target: T4, Cytochrome P450 1A2 (Homo sapiens, UniProt P05177);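 note: PubChem cytochrome P450 panel assay, CYP1A2 panel member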
T4 sequence (P05177 whole entry): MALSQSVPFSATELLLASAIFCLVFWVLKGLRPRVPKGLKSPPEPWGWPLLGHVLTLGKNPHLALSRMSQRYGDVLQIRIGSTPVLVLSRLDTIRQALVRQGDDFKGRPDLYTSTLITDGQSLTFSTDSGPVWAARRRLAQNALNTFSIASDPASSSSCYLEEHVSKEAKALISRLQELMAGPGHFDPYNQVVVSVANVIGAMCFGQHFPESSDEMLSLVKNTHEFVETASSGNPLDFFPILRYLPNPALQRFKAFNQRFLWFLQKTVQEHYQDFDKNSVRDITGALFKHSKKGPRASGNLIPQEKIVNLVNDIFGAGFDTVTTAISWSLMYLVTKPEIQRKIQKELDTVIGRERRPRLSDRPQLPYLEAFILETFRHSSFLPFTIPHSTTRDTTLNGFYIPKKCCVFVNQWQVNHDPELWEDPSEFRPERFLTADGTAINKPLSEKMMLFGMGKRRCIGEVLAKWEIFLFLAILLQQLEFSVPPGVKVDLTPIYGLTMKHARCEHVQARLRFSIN

[5] = target: Protein-tyrosine kinase 2-beta (Homo sapiens, UniProt Q14289);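 note: potency of inhibitors of PYK2 kinase phosphorylation of poly-GT substrate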
Cytochrome P450 3A4 = Cytochrome P450 3A4 (Homo sapiens, UniProt P08684);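 note: CYP3A4 tested as one member of a cytochrome P450 panel screen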
Cytochrome P450 2C19 = Cytochrome P450 2C19 (Homo sapiens, UniProt P33261); test: Cytochrome panel assay with activity outcomes. Panel member name: p450-cyp2c19 Compounds with AC50 equal or less than 10 uM are considered active; format: functional; settings: read-out: AC50
[6] = Luminescence Cell-Based Dose Retest to Confirm Inhibitors of Cancer Stem Cells. [Related pubchem assays (depositor defined):AID2717, AID2721]; format: functional; settings: Homo sapiens
Paired box protein Pax-8 = Paired box protein Pax-8 (Homo sapiens, UniProt Q06710); test: PAX8 transcriptional activity inhibition in RMG-I – RMG-I cells, luciferase, cherry-pick, dose response (AID 687027); format: functional, cell-based;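 note: luciferase reporter driven by Pax8 target thyroperoxidase promoter measured by SteadyGlo luminescence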
BJ [7] = test: growth inhibition of engineered Ras-driven BJ cells – cell-based, alamar blue fluorescence, cherrypicked samples, dose response (AID 2631); format: functional; settings: Homo sapiens;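 note: confirmatory dose-response assay in RAS-dependent BJ fibroblasts engineered with TERT, LT and ST, with cytotoxicity read by fluorescence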
[8] = DRD fibroblast viability loss – cell-based, non-viral oncogenic, luminescence, dose response (AID 1934); format: functional; settings: Homo sapiens
BJ [9] = test: cells; format: functional, cell-based; settings: Homo sapiens
[10] = general cell-killing toxicity readout – plate reader, dry powder samples, cytotoxicity control for PAX8 inhibitor project, dose response (AID 743021); format: functional, cell-based
[11] = HEK-293T viability loss after treatment – luminescence, T-cell screen hits, cytotoxicity control for TCR NF-kB inhibitor project, dose response (AID 489026); format: functional, cell-based;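 note: cells exposed to compound about 14 hours before the viability readout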
Vero [12] = test: cells; format: functional; settings: Chlorocebus sabaeus
BJ [13] = test: BJ-TERT fibroblast viability loss – cell-based, RAS-independent, luminescence, dose response (AID 1933); format: functional; settings: Homo sapiens
[14] = Luminescence-based counterscreen assay for KLF5 inhibitors: dose response cell-based high throughput screening assay to identify cytotoxic compounds using the IEC-6 intestinal epithelial cell line. [Related pubchem assays: 1700 (Primary screen.), 1834 (Confirmation screen.), 1858 (Summary AID.), 1905 (Counterscreen.)]; format: functional
BJ [15] = test: BJ-TERT-LT-ST fibroblast viability loss – cell-based, RAS-independent, luminescence, dose response (AID 1935); format: functional; settings: Homo sapiens;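 note: BJ fibroblasts immortalized with TERT plus LT and ST oncogenes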
Caspase-7 = target: T5, Caspase-7 (Homo sapiens, UniProt P55210); test: caspase-7 enzyme inhibition, selectivity check – biochemical, DEVD-R110 fluorescence, cherry-pick, selectivity assay for caspase-6 inhibitor project, dose response (AID 743295); format: functional
T5 sequence (P55210 whole entry): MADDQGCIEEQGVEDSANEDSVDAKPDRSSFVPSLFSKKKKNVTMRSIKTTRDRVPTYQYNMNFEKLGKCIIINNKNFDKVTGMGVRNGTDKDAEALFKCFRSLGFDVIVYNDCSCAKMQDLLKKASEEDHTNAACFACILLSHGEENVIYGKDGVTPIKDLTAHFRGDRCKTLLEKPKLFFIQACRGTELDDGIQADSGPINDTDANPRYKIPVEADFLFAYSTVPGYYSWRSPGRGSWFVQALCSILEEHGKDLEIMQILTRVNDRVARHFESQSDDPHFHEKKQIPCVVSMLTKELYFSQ

[16] = target: Glucose-6-phosphate 1-dehydrogenase (Homo sapiens, UniProt P11413); test: inhibition of Homo sapiens G6PD, dose series – biochemical, fluorescence, selectivity assay for P. falciparum G6PD inhibitor project, dose response (AID 504792); format: functional
Large T antigen = Large T antigen (Simian virus 40, UniProt P03070); format: functional, Betapolyomavirus macacae;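 note: Confirmatory-stage PubChem screen for compounds that inhibit SV40 T antigen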
Caspase-6 = target: T6, Caspase-6 (Homo sapiens, UniProt P55212); test: inhibition of CASP6 peptide cleavage – biochemical, VEID-R110 fluorescence, cherry-pick, dose response (AID 720632)
T6 sequence (P55212 whole entry): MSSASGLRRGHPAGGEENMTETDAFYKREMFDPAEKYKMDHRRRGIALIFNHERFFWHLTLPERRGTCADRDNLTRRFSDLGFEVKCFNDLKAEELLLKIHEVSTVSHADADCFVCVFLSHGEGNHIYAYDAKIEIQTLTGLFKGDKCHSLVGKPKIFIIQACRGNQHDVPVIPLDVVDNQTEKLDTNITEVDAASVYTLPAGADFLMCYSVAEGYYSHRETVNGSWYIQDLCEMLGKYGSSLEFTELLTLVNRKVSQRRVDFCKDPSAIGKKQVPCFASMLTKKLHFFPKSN

Caspase-9 = target: T7, Caspase-9 (Homo sapiens, UniProt P55211); test: inhibitors of purified CASP9 protease – biochemical, fluorescence, plate reader, cherry-picked samples, selectivity assay for caspase-6 inhibitor project, dose response (AID 743293)
T7 sequence (P55211 whole entry): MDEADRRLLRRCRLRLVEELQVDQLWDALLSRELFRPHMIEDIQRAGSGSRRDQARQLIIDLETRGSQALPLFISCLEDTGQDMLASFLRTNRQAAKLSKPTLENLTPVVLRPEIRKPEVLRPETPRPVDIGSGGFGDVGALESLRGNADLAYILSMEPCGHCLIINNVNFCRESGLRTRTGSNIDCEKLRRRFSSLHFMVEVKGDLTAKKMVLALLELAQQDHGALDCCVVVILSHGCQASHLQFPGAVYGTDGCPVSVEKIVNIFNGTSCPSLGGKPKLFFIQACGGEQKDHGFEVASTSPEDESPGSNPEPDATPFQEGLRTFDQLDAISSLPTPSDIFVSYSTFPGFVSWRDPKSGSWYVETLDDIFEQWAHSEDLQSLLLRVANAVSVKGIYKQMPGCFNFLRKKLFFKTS

Protein-tyrosine kinase 2-beta, sequence (Q14289 whole entry): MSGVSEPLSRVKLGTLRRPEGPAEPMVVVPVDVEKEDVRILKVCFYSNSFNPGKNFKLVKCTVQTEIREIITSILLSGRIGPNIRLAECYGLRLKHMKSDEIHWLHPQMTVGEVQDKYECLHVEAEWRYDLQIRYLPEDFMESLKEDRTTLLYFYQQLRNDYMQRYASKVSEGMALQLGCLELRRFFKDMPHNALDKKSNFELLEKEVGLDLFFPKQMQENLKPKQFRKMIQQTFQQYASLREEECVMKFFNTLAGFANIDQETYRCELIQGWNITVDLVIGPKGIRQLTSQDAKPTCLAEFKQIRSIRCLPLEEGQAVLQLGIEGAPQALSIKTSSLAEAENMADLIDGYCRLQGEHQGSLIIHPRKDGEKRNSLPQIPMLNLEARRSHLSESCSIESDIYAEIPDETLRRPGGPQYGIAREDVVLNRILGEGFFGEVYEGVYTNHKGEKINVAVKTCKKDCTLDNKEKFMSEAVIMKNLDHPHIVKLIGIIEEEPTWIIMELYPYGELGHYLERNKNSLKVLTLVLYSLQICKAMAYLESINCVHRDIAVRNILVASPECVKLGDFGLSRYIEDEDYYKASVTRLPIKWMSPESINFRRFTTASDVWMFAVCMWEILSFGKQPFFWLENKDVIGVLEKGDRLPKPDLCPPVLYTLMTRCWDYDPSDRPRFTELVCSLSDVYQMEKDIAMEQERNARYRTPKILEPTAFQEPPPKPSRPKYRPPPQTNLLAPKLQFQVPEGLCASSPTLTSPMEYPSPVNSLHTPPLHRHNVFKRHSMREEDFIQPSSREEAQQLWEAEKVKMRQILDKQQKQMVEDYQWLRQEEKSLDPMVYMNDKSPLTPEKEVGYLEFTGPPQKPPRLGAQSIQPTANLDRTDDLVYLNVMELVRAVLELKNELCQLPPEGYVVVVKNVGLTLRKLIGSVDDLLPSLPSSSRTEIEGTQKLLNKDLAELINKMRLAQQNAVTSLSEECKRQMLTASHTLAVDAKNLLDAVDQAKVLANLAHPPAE
Glucose-6-phosphate 1-dehydrogenase, sequence (P11413 whole entry): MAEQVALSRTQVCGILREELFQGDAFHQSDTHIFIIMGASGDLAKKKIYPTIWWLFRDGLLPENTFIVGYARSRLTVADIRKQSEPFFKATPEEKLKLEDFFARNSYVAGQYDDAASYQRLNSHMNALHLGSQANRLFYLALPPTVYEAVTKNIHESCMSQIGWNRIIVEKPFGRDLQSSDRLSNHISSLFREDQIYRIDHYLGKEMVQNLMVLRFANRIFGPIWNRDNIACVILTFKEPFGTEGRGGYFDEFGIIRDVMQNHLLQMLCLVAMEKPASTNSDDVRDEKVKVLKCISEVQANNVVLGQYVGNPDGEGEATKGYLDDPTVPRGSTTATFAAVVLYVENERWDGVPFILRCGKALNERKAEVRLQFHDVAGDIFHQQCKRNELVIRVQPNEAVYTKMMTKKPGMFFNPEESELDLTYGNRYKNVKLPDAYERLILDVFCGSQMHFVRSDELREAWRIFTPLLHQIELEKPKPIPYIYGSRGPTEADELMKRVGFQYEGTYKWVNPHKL
Paired box protein Pax-8, sequence (Q06710 whole entry): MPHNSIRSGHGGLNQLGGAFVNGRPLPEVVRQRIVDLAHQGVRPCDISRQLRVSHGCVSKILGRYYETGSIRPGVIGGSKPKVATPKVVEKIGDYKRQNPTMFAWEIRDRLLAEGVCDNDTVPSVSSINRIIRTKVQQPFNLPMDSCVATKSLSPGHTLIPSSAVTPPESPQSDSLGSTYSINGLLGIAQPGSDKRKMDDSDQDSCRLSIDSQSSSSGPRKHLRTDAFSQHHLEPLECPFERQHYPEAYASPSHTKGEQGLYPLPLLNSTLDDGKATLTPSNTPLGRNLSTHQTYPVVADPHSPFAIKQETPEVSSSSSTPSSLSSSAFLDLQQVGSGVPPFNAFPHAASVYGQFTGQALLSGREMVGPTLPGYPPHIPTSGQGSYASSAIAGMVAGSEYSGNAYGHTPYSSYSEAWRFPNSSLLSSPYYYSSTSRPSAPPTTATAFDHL
Cytochrome P450 2C19, sequence (P33261 whole entry): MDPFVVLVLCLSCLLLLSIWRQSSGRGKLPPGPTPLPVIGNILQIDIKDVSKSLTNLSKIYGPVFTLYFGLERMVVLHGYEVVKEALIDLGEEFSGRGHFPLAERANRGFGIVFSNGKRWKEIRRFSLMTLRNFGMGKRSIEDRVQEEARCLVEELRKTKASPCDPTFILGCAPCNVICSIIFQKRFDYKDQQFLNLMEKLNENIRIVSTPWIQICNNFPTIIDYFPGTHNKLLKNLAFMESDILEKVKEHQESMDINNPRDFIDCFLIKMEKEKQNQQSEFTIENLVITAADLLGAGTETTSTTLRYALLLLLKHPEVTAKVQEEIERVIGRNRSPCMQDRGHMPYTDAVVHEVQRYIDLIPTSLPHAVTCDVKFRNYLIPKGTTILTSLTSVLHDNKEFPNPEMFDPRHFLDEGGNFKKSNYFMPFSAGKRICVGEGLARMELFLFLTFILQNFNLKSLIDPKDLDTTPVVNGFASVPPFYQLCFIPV
Cytochrome P450 3A4, sequence (P08684 whole entry): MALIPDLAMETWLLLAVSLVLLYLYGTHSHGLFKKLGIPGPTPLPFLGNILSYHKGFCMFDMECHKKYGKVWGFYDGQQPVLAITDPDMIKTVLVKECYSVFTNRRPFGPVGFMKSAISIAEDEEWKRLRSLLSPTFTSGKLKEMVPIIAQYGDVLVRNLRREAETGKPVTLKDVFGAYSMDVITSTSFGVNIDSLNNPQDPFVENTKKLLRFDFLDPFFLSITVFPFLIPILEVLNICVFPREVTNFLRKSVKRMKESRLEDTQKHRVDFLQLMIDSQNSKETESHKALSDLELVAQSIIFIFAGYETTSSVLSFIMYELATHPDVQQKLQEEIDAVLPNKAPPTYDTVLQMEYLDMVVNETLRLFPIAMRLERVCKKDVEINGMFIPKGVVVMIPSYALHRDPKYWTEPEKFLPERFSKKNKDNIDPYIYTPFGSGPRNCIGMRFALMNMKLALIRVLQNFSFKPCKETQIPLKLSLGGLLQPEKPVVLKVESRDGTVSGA
Large T antigen, sequence (P03070 whole entry): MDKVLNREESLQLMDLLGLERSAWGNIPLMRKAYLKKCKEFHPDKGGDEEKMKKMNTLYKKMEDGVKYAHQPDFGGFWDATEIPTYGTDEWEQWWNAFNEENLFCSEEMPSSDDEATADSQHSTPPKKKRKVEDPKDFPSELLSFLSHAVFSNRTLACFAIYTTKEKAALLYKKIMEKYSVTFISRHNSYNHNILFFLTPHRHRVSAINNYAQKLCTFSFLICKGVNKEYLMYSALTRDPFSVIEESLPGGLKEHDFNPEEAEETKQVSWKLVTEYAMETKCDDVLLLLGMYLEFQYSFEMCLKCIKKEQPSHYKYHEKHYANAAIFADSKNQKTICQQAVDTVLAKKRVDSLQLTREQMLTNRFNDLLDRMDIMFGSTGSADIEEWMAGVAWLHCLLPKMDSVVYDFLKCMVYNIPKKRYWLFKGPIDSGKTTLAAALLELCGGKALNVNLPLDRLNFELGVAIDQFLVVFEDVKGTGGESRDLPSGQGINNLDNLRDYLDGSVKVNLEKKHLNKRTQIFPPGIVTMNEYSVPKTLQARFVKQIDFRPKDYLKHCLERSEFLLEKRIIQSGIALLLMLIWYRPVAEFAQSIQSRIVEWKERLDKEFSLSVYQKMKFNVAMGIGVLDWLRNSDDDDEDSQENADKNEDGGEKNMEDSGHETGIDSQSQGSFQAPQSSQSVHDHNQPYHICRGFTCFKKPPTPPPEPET

Structure (SMILES): C[C@@H]1CC=C[C@H]2[C@H]1C(=O)N(Cc1ccccc1)[C@H]2c1ccc(F)c(Br)c1
- AC50 [1]: 5.04 µM (active)
- EC50 (Protein RecA): 23 µM (active)
- CC50 (Vero [2]): 24.1 µM (active)

Structure (SMILES): CCC(=O)c1ccccc1OCCCN1CCC(Cc2ccccc2)CC1
- IC50 [3]: > 96.6 µM (inactive)

Structure (SMILES): O=C(CSc1nnc(-c2cccnc2)n1Cc1ccco1)c1ccc(Br)cc1
- IC50 [4]: > 100 µM (active)

Structure (SMILES): CC(C)(C)C(=O)NC(=C(Cl)Cl)P(=O)(O)O
- AC50 (Cytochrome P450 1A2): 0.1 µM (inconclusive)
- IC50 [5]: 9.26 µM (active)

Structure (SMILES): COC(=O)C(Cc1c[nH]c2ccccc12)NC(=O)C(C)C (stereo unspecified)
- IC50 [4]: > 100 µM (active)
- AC50 (Cytochrome P450 3A4): 31.6 µM (inconclusive)
- AC50 (Cytochrome P450 2C19): 22.4 µM (inconclusive)

Structure (SMILES): COc1ccc2nc(C)cc(SCC(=O)N/N=C/c3cccc4ccccc34)c2c1
- IC50 [5]: 2.57 µM (active)
- AC50 [6]: 1.11 µM (active)

Structure (SMILES): C[C@]12CCC3C(CCC4=CC(O)CC[C@@]43/C=N/O)C1(O)CCC2C1=CC(=O)OC1 (stereo partly specified)
- AC50 (Paired box protein Pax-8): 2.22 µM (active)
- EC50 (BJ [7]): 0.391 µM (active)
- EC50 [8]: 2.33 µM (active)
- EC50 (BJ [9]): 2.56 µM (active)
- CC50 (Vero [2]): 0.79 µM (active)
- AC50 [10]: 50.2 µM (active)
- IC50 [11]: > 80 µM (inactive)
- CC50 (Vero [12]): 1.34 µM (active)
- EC50 (BJ [13]): 1.9 µM (active)
- IC50 [14]: > 39.8 µM (not active)
- EC50 (BJ [15]): 2.36 µM (inconclusive)

Structure (SMILES): Nc1c(O)cccc1C(=O)O
- AC50 [1]: > 380 µM (inactive)
- EC50 (Protein RecA): 5.43 µM (active)
- AC50 (Caspase-7): 6.14 µM (active)
- IC50 [16]: 24 µM (inactive)
- IC50 (Large T antigen): 20.1 µM (active)
- AC50 (Caspase-6): 1.59 µM (active)
- AC50 (Caspase-9): > 70 µM (inactive)

Structure (SMILES): O=C1CCCCC1Oc1ccc2ccc(=O)oc2c1 (stereo unspecified)
- IC50 [4]: > 100 µM (active)
